Reference: US8778931B2, “Substituted hydroxamic acids and uses thereof” (Millennium Pharmaceuticals, Inc., priority 2010, dated 2014)

Legend:
[1] = Intrinsic Clearance in Microsomes (human); assay type: in vitro ADME; details: liver microsomes, pH 7.4, 2 μM test compound, read-out: In Vitro Microsomal Intrinsic Clearance, Human CL int
Protocol: (§1) The following reagents and stock solutions are required for determination of microsomal clearance.
(§2) • 1. 0.1 M potassium phosphate buffer, pH 7.4: • Stock A (1.0 M): 136.5 g of monobasic potassium phosphate (Sigma #P5379) in 1 L of nanopure water. • Stock B (1.0 M): 174.2 g of dibasic potassium phosphate (Sigma #P8281) in 1 L of nanopure water. • Mix 40.5 mL of stock B+9.5 mL of stock A, adjust pH with monobasic potassium phosphate, qs to 500 mL with nanopure water to give 0.1M potassium phosphate buffer, pH 7.4. • 2. […] NADPH: β-nicotinamide adenine dinucleotide phosphate, reduced form (Sigma #N1630) • 4. UDPGA: Uridine 5′-Diphosphote Glucuronic Acid, Triamnonium salt (Sigma #U-5625) • 5. Alamethicin (Sigma #A-4665-25) • 6. MgCl2: Magnesium chloride (Sigma #M8266) • 7. DMSO: Dimethyl sulfoxide (Sigma #D4540) • 8. 7EC: 7-Ethoxycoumarine (Sigma #E1379), positive control. • 9. Carbutamide (Aldrich cat #38157-8), internal standard. Stock Solutions: • 1. 10 mM stock solution of test compound in DMSO • 200 μM test solution of test compound: 10 μL of 10 mM test compound stock solution+490 μL of 75% ACN/water • 2. 10 mM stock solution of 7-Ethoxycoumarin in DMSO (positive control) • 200 μM test solution of 7-Ethoxycoumarine: 10 μL of 10 mM 7EC stock solution+490 μL of 75% ACN/water. • 3. 10 mM carbutamide stock (internal standard): Dissolve 2.71 mg of carbutimide in 1 mL DMSO. • 1 μM carbutamide solution: 100 μL of 10 mM stock solution in • 1 L of acetonitrile, store at 4° C. • 4. 3 mM MgCl2 in 0.1 M K-phosphate buffer: • Dissolve 28.5 mg of anhydrous MgCl2 in 100 mL of 0.1 M K-phosphate buffer, pH 7.4. • 5. 4× Stock Solution of Cofactors Mixture
(§3) 16 mM NADPH in 0.1 M K-phosphate buffer, pH 7.4 containing MgCl2.
(§4) 20 mM UDPGA in 0.1 M K-phosphate buffer, pH 7.4 containing MgCl2
(§5) Aliquot equal volume of stock solution of NADPH and UDPGA to make the final stock solution of cofactor mixture as follows:
(§6) 10 mM UDPGA • 6. Add 1.25 mL of methanol directly to the bottle of alamethicin. Invert 10 times to dissolve the alamethicin. This yields a 20 mg/ml solution of alamethicin. […]

purified human HDAC6 = molecular target: T1, purified human HDAC6 (Homo sapiens, UniProt Q9UBN7); test: HDAC6 Enzyme Assay; assay type: biochemical; details: HDAC6, 0.37 μM concentration; read-out: Percentage Inhibition (%)
T1 construct: purchased BPS Bioscience 5006
T1 sequence (Q9UBN7 1-1215): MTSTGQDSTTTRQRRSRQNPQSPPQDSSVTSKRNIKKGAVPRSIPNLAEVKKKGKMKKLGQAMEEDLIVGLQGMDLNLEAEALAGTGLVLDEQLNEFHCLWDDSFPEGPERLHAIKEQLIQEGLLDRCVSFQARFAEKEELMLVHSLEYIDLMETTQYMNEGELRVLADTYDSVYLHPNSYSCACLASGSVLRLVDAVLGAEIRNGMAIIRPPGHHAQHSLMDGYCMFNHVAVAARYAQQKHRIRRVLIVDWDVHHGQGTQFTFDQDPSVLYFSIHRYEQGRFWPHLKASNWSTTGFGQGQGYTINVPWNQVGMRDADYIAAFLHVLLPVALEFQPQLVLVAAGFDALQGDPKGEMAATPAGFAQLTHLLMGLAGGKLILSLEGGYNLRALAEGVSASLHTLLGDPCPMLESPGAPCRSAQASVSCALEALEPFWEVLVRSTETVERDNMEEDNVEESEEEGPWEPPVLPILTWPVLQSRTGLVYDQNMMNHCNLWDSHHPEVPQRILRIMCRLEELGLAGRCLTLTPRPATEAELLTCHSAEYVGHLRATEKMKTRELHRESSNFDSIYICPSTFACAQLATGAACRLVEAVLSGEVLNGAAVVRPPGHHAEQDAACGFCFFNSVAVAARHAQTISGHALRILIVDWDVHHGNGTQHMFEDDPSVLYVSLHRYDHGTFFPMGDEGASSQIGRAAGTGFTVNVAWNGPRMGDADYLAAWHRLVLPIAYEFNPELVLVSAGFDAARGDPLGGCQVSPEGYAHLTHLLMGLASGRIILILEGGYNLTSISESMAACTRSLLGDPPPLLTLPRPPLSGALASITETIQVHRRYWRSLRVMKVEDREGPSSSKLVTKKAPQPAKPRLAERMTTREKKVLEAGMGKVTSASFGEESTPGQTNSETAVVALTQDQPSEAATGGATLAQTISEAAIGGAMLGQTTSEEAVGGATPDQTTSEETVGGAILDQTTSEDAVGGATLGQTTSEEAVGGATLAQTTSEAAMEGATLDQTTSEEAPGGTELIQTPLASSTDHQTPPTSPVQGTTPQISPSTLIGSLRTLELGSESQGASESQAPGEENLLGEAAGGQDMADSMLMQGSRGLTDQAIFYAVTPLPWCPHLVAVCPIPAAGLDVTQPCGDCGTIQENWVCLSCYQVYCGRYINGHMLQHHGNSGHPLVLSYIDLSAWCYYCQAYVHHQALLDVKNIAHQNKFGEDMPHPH
Protocol: To measure the inhibition of HDAC6 activity, purified human HDAC6 (BPS Bioscience; Cat. No. 5006) is incubated with substrate Ac-Arg-Gly-Lys(Ac)-AMC peptide (Bachem Biosciences; Cat. No. I-1925) for 1 hour at 30° C. in the presence of test compounds or vehicle DMSO control. The reaction is stopped with the HDAC inhibitor trichostatin A (Sigma; Cat. No. T8552) and the amount of Arg-Gly-Lys-AMC generated is quantitated by digestion with trypsin (Sigma; Cat. No. T1426) and subsequent measurement of the amount of AMC released using a fluorescent plate reader (Pherastar; BMG Technologies) set at Ex 340 nm and Em 460 nm. Concentration response curves are generated by calculating the fluorescence increase in test compound-treated samples relative to DMSO-treated controls, and percentage inhibition values at a single concentration or enzyme inhibition (IC50) values are determined from those curves. One skilled in the art will appreciate that the values generated either as percentage inhibition at a single concentration or IC50 values are subject to experimental variation.

[2] = Intrinsic Clearance in Microsomes (rat); assay type: in vitro ADME; details: liver microsomes, pH 7.4, 2 μM test compound, read-out: In Vitro Microsomal Intrinsic Clearance, Rat CL int (converted)
Protocol: as §1, §2, §3, §4, §5, §6

[3] = Intrinsic Clearance in Microsomes (dog); assay type: in vitro ADME; details: liver microsomes, pH 7.4, 2 μM test compound, read-out: In Vitro Microsomal Intrinsic Clearance, Dog CL int (converted)
Protocol: as §1, §2, §3, §4, §5, §6

SMILES | CLint scaled at 2 µM [1] | inhibition at 0.37 µM (purified human HDAC6) | CLint scaled at 2 µM [2] | CLint scaled at 2 µM [3]
CC1(C(=O)N2CCc3cc(C(=O)NO)ccc3C2)CCNCC1 [Compound I-1, N-hydroxy-2-[(4-methylpiperidin-4-yl)carbonyl]-1,2,3,4-tetrahydroisoquinoline-6-carboxamide] | < 6.33 mL/min/kg | 79.7% | < 14.2 mL/min/kg | < 7.83 mL/min/kg
CCN1CCC(C)(C(=O)N2CCc3cc(C(=O)NO)ccc3C2)CC1 [Compound I-2, 2-[(1-ethyl-4-methylpiperidin-4-yl)carbonyl]-N-hydroxy-1,2,3,4-tetrahydroisoquinoline-6-carboxamide] | < 6.33 mL/min/kg | 78.3% | < 14.2 mL/min/kg | < 7.83 mL/min/kg
CC1(C(=O)Nc2ccc(CN3CCc4cc(C(=O)NO)ccc4C3)cc2)CCNCC1 [Compound I-4, N-hydroxy-2-(4-{[(4-methylpiperidin-4-yl)carbonyl]amino}benzyl)-1,2,3,4-tetrahydroisoquinoline-6-carboxamide] |  | 72.2% |  | 
O=C(NO)c1ccc2c(c1)CCN(Cc1ccc(C3CCNCC3)cc1)C2 [Compound I-3, N-hydroxy-2-(4-piperidin-4-ylbenzyl)-1,2,3,4-tetrahydroisoquinoline-6-carboxamide] |  | 80.7% |  | 

Continued, values first:

CLint scaled at 2 µM [1] | inhibition at 0.37 µM (purified human HDAC6) | CLint scaled at 2 µM [2] | CLint scaled at 2 µM [3] | SMILES
 | 46.2% |  |  | CC(C)(C)OC(=O)N1CCC(c2ccc(CN3CCc4cc(C(=O)NO)ccc4C3)cc2)CC1 [Compound I-5, tert-butyl 4-(4-{[6-[(hydroxyamino)carbonyl]-3,4-dihydroisoquinolin-2(1H)-yl]methyl}phenyl)piperidine-1-carboxylate]
 | 61% |  |  | CC(C)(C)OC(=O)N1CCC(C)(C(=O)Nc2ccc(CN3CCc4cc(C(=O)NO)ccc4C3)cc2)CC1 [Compound I-6, tert-butyl 4-{[(4-{[6-[(hydroxyamino)carbonyl]-3,4-dihydroisoquinolin-2(1H)-yl]methyl}phenyl)amino]carbonyl}-4-methylpiperidine-1-carboxylate]
< 6.33 mL/min/kg | 88.8% | 46.7 mL/min/kg | 31.7 mL/min/kg | CC(C)(C)OC(=O)N1CCC(C)(C(=O)N2CCc3cc(C(=O)NO)ccc3C2)CC1 [Compound I-13, tert-butyl 4-{[6-[(hydroxyamino)carbonyl]-3,4-dihydroisoquinolin-2(1H)-yl]carbonyl}-4-methylpiperidine-1-carboxylate]
